This is an account of results in the supplement of paper PMC10307832.

Holding throughout (test): relative viability (nuclei count vs DMSO), 5 days (fraction); higher = more cells survive
Compound in assay [1]: CC1=C(C=C(C=C1)NC(=O)C2=CC(=CC=C2)C(C)(C)C#N)NC3=CC4=C(C=C3)N=CN(C4=O)C [AZ628] + Nc1nc2[nH]cc(CCc3ccc(C(=O)N[C@@H](CCC(=O)O)C(=O)O)cc3)c2c(=O)[nH]1 [Pemetrexed] (partner 0.2 µM)
In outline:
(§1)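 The day after seeding in 1536-well plates, lung cancer cell lines were treated by pin tool with a single drug, or with a fixed anchor-drug dose together with five library-drug doses (not always all listed) in √10 steps. After 5 days, a combined fix-and-stain solution (final 0.05% Triton X-100, 1% formaldehyde, 1 ug/ml Hoechst) was added. Nuclei counted on 4× images gave relative viability as treated counts over vehicle counts, reported as the median of duplicate plates.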

Compound in assay [2]: C[As](C)SC[C@H](NC(=O)CC[C@H](N)C(=O)O)C(=O)NCC(=O)O [Darinaparsin] + COc1cccc2cc(-c3nc([C@H]4CC[C@H](C(=O)O)CC4)n4ncnc(N)c34)[nH]c12 [OSI-027] (partner 0.5 µM)
The method, boiled down:
as §1

Compound in assay [3]: C1CC2=C(C1)C=C(C=C2)OC3=NC(=C4C(=N3)N(C=N4)CC5=CC=C(C=C5)C6=CC=CC=C6)N[C@@H](CC7=CC=CC=C7)CO [QS11] + C[C@]1(O)C[C@@H](c2nc(-c3ccc4ccc(-c5ccccc5)nc4c3)c3c(N)nccn32)C1 [Linsitinib] (partner 1 µM)
In outline:
as §1

Compound in assay [4]: C1CC2=C(C1)C=C(C=C2)OC3=NC(=C4C(=N3)N(C=N4)CC5=CC=C(C=C5)C6=CC=CC=C6)N[C@@H](CC7=CC=CC=C7)CO [QS11] + CC(C)C[C@H](NC(=O)[C@H](Cc1ccccc1)NC(=O)c1cnccn1)B(O)O [Bortezomib] (partner 0.002 µM)
In outline:
as §1

For the cell line NCI-H2170, the relative viability in assay [1] (first compound 0.08 µM) amounted to 0.285; in assay [1] (first compound 0.253 µM), 0.259; in assay [1] (first compound 0.8 µM), 0.267; in assay [1] (first compound 2.53 µM), 0.3; in assay [1] (first compound 8 µM), 0.266; in assay [2] (first compound 0.08 µM), 0.734. Also, the results for the relative viability in assay [2] (first compound 0.8 µM), in assay [2] (first compound 2.53 µM) and in assay [2] (first compound 8 µM) were 0.725, 0.697 and 0.727, respectively.
Take NCI-H1648: the relative viability in assay [1] (first compound 0.08 µM) was 1.06; in assay [1] (first compound 0.253 µM) it was 0.702; in assay [1] (first compound 0.8 µM), 0.614; in assay [1] (first compound 2.53 µM), 0.549; in assay [1] (first compound 8 µM), 0.642; in assay [2] (first compound 0.08 µM), 0.297. For the same cell line, the relative viability in assay [2] (first compound 0.8 µM) turned out to be 0.237; in assay [2] (first compound 8 µM), 0.269.
With NCI-H1793, the relative viability in assay [1] (first compound 0.08 µM) amounted to 1.16; in assay [1] (first compound 0.253 µM) it was 0.617; in assay [1] (first compound 0.8 µM) it was 0.971; in assay [1] (first compound 2.53 µM), 0.757; in assay [1] (first compound 8 µM), 0.522; in assay [2] (first compound 0.08 µM), 0.329. Besides, the relative viability in assay [2] (first compound 0.8 µM) was 0.254; in assay [2] (first compound 2.53 µM), 0.27; in assay [2] (first compound 8 µM) it was 0.309; in assay [3] (first compound 0.08 µM) it was 0.972; in assay [3] (first compound 0.253 µM), 0.877; in assay [3] (first compound 0.8 µM), 0.939. Further, the relative viability in assay [3] (first compound 2.53 µM) turned out to be 1.19; in assay [3] (first compound 8 µM), 1.04.
On to NCI-H2342, for which the relative viability worked out at 0.89 in assay [1] (first compound 0.08 µM); 0.683 in assay [1] (first compound 0.253 µM); 0.761 in assay [1] (first compound 0.8 µM); 0.702 in assay [1] (first compound 2.53 µM); 0.793 in assay [1] (first compound 8 µM); 0.592 in assay [2] (first compound 0.08 µM). For the same cell line, the relative viability in assay [2] (first compound 0.8 µM) came out at 0.593; in assay [2] (first compound 2.53 µM) it was 0.558; in assay [2] (first compound 8 µM), 0.654.
Regarding NCI-H522, the relative viability in assay [1] (first compound 0.08 µM) turned out to be 0.903; in assay [1] (first compound 0.253 µM), 1.02; in assay [1] (first compound 0.8 µM), 0.874; in assay [1] (first compound 2.53 µM) it was 0.93; in assay [1] (first compound 8 µM), 0.645; in assay [2] (first compound 0.08 µM) it was 0.617. Moreover, the relative viability in assay [2] (first compound 0.8 µM) was 0.644; in assay [2] (first compound 2.53 µM) it was 0.623; in assay [2] (first compound 8 µM), 0.712.
A549: the relative viability in assay [3] (first compound 0.08 µM) stood at 0.506; in assay [3] (first compound 0.253 µM), 0.558; in assay [3] (first compound 0.8 µM) it was 0.507; in assay [3] (first compound 2.53 µM), 0.475; in assay [3] (first compound 8 µM), 0.885.
Take NCI-H1703: the relative viability was 0.323 in assay [4] (first compound 0.08 µM); 0.376 in assay [4] (first compound 0.253 µM); 0.254 in assay [4] (first compound 0.8 µM); 0.236 in assay [4] (first compound 2.53 µM); 0.203 in assay [4] (first compound 8 µM); 1.1 in assay [3] (first compound 0.08 µM). Further, the relative viability in assay [3] (first compound 0.253 µM) was 0.48; in assay [3] (first compound 0.8 µM) it was 1.06; in assay [3] (first compound 2.53 µM), 0.752; in assay [3] (first compound 8 µM) it was 0.611.
With NCI-H1299, the relative viability in assay [4] (first compound 0.08 µM) stood at 1.03; in assay [4] (first compound 0.253 µM), 1.06; in assay [4] (first compound 0.8 µM), 0.915; in assay [4] (first compound 2.53 µM), 0.969; in assay [4] (first compound 8 µM) it was 0.841; in assay [3] (first compound 0.08 µM), 0.999. For the same cell line, the relative viability in assay [3] (first compound 0.253 µM) is 0.995; in assay [3] (first compound 0.8 µM), 0.787; in assay [3] (first compound 2.53 µM), 0.87; in assay [3] (first compound 8 µM) it was 0.959.
Take ChaGo-K-1: the relative viability in assay [4] (first compound 0.253 µM) was determined as 1.01; in assay [4] (first compound 0.8 µM), 1.17; in assay [4] (first compound 2.53 µM), 1.25; in assay [4] (first compound 8 µM), 1.09; in assay [1] (first compound 0.08 µM) it was 0.27; in assay [1] (first compound 0.253 µM) it was 0.277. Further, the relative viability in assay [1] (first compound 0.8 µM) was found to be 0.262; in assay [1] (first compound 2.53 µM) it was 0.298; in assay [1] (first compound 8 µM), 0.243; in assay [2] (first compound 0.08 µM), 0.612; in assay [2] (first compound 0.8 µM) it was 0.518; in assay [2] (first compound 2.53 µM) it was 0.516. Further, the relative viability in assay [2] (first compound 8 µM) was 0.715.
NCI-H1623: the relative viability in assay [2] (first compound 0.08 µM) came out at 0.429; in assay [2] (first compound 0.8 µM) it was 0.496; in assay [2] (first compound 2.53 µM) it was 0.471; in assay [2] (first compound 8 µM), 0.393.
NCI-H727: the relative viability was determined as 0.804 in assay [4] (first compound 0.08 µM); 0.72 in assay [4] (first compound 0.253 µM); 0.893 in assay [4] (first compound 0.8 µM); 0.739 in assay [4] (first compound 2.53 µM); 0.35 in assay [4] (first compound 8 µM); 0.77 in assay [2] (first compound 0.08 µM). Besides, the relative viability in assay [2] (first compound 0.8 µM) is 0.541; in assay [2] (first compound 2.53 µM) it was 0.794; in assay [2] (first compound 8 µM), 0.854; in assay [3] (first compound 0.08 µM), 0.287; in assay [3] (first compound 0.253 µM), 0.296; in assay [3] (first compound 0.8 µM), 0.338. The relative viability in assay [3] (first compound 2.53 µM) amounted to 0.316; in assay [3] (first compound 8 µM), 0.289.
For NCI-H1650, the relative viability in assay [4] (first compound 0.08 µM) came to 0.183; in assay [4] (first compound 0.253 µM), 0.215; in assay [4] (first compound 0.8 µM), 0.18; in assay [4] (first compound 2.53 µM) it was 0.197; in assay [4] (first compound 8 µM), 0.186; in assay [1] (first compound 0.08 µM), 0.403. The relative viability in assay [1] (first compound 0.253 µM) worked out at 0.386; in assay [1] (first compound 0.8 µM), 0.419; in assay [1] (first compound 2.53 µM), 0.431; in assay [1] (first compound 8 µM) it was 0.38; in assay [2] (first compound 0.08 µM), 0.567; in assay [2] (first compound 0.8 µM), 0.612. In addition, the relative viability is 0.504 in assay [2] (first compound 2.53 µM) and 0.757 in assay [2] (first compound 8 µM).
For the cell line EBC-1, the relative viability worked out at 0.535 in assay [4] (first compound 0.08 µM); 0.444 in assay [4] (first compound 0.253 µM); 0.479 in assay [4] (first compound 0.8 µM); 0.408 in assay [4] (first compound 2.53 µM); 0.271 in assay [4] (first compound 8 µM); 0.966 in assay [3] (first compound 0.08 µM). Moreover, the relative viability in assay [3] (first compound 0.253 µM) was 0.86; in assay [3] (first compound 0.8 µM), 0.696; in assay [3] (first compound 2.53 µM) it was 0.75; in assay [3] (first compound 8 µM) it was 1.05.
Take SW 900: the relative viability in assay [1] (first compound 0.08 µM) was 0.495; in assay [1] (first compound 0.253 µM), 0.489; in assay [1] (first compound 0.8 µM) it was 0.471; in assay [1] (first compound 2.53 µM) it was 0.461; in assay [1] (first compound 8 µM), 0.451; in assay [2] (first compound 0.08 µM) it was 0.851. In addition, the values for the relative viability in assay [2] (first compound 0.8 µM), in assay [2] (first compound 2.53 µM) and in assay [2] (first compound 8 µM) were 0.547, 0.72 and 0.756, respectively.
